Measured values taken from patent EP3002287B1, “Thiochromeno[2,3-c]quinolin-12-one derivatives and their use as topoisomerase inhibitors” (National Defense Medical Center, priority 2014, dated 2016).

Legend:
Assay in all cases: NCI in vitro 60-cell drug screen (SRB assay)
Format in all cases: cell-based
CCRF-CEM = CCRF-CEM (Leukemia); 10^-5 molar concentration; 48 hours
HL-60(TB) = HL-60(TB) (Leukemia); 10^-5 molar concentration; 48 hours
K-562 = K-562 (Leukemia); 10^-5 molar concentration; 48 hours
MOLT-4 = MOLT-4 (Leukemia); 10^-5 molar concentration; 48 hours
HOP-92 = HOP-92 (Non-small cell lung cancer); 10^-5 molar concentration; 48 hours
NCI-H23 = NCI-H23 (Non-small cell lung cancer); 10^-5 molar concentration; 48 hours
NCI-H460 = NCI-H460 (Non-small cell lung cancer); 10^-5 molar concentration; 48 hours
NCI-H522 = NCI-H522 (Non-small cell lung cancer); 10^-5 molar concentration; 48 hours
COLO 205 = COLO 205 (Colon cancer); 10^-5 molar concentration; 48 hours
HCC-2998 = HCC-2998 (Colon cancer); 10^-5 molar concentration; 48 hours
HCT-116 = HCT-116 (Colon cancer); 10^-5 molar concentration; 48 hours
HCT-15 = HCT-15 (Colon cancer); 10^-5 molar concentration; 48 hours
HT29 = HT29 (Colon cancer); 10^-5 molar concentration; 48 hours
SF-268 = SF-268 (CNS cancer); 10^-5 molar concentration; 48 hours
SNB-75 = SNB-75 (CNS cancer); 10^-5 molar concentration; 48 hours
U251 = U251 (CNS cancer); 10^-5 molar concentration; 48 hours
LOX IMVI = LOX IMVI (Melanoma); 10^-5 molar concentration; 48 hours
MDA-MB-435 = MDA-MB-435 (Melanoma); 10^-5 molar concentration; 48 hours
SK-MEL-28 = SK-MEL-28 (Melanoma); 10^-5 molar concentration; 48 hours
UACC-257 = UACC-257 (Melanoma); 10^-5 molar concentration; 48 hours
UACC-62 = UACC-62 (Melanoma); 10^-5 molar concentration; 48 hours
OVCAR-3 = OVCAR-3 (Ovarian cancer); 10^-5 molar concentration; 48 hours
OVCAR-4 = OVCAR-4 (Ovarian cancer); 10^-5 molar concentration; 48 hours
NCI/ADR-RES = NCI/ADR-RES (Ovarian cancer); 10^-5 molar concentration; 48 hours
SK-OV-3 = SK-OV-3 (Ovarian cancer); 10^-5 molar concentration; 48 hours
786-0 = 786-0 (Renal cancer); 10^-5 molar concentration; 48 hours
A498 = A498 (Renal cancer); 10^-5 molar concentration; 48 hours
CAKI-1 = CAKI-1 (Renal cancer); 10^-5 molar concentration; 48 hours
RXF 393 = RXF 393 (Renal cancer); 10^-5 molar concentration; 48 hours
TK-10 = TK-10 (Renal cancer); 10^-5 molar concentration; 48 hours
UO-31 = UO-31 (Renal cancer); 10^-5 molar concentration; 48 hours
PC-3 = PC-3 (Prostate cancer); 10^-5 molar concentration; 48 hours
MCF7 = MCF7 (Breast cancer); 10^-5 molar concentration; 48 hours
MDA-MB-231/ATCC = MDA-MB-231/ATCC (Breast cancer); 10^-5 molar concentration; 48 hours
HS 578T = HS 578T (Breast cancer); 10^-5 molar concentration; 48 hours
T-47D = T-47D (Breast cancer); 10^-5 molar concentration; 48 hours
MDA-MB-486 = MDA-MB-486 (Breast cancer); 10^-5 molar concentration; 48 hours

Row | SMILES | Growth percent (CCRF-CEM) [%] | Growth percent (HL-60(TB)) [%] | Growth percent (K-562) [%] | Growth percent (MOLT-4) [%] | Growth percent (HOP-92) [%] | Growth percent (NCI-H23) [%] | Growth percent (NCI-H460) [%] | Growth percent (NCI-H522) [%] | Growth percent (COLO 205) [%] | Growth percent (HCC-2998) [%] | Growth percent (HCT-116) [%] | Growth percent (HCT-15) [%] | Growth percent (HT29) [%] | Growth percent (SF-268) [%] | Growth percent (SNB-75) [%] | Growth percent (U251) [%] | Growth percent (LOX IMVI) [%] | Growth percent (MDA-MB-435) [%] | Growth percent (SK-MEL-28) [%] | Growth percent (UACC-257) [%] | other results
1 | O=c1c2cc(Cl)ccc2sc2c(N3CCN(Cc4ccccc4)CC3)nc3ccccc3c12 [Compound 11, 6-(4-Benzylpiperazin-1-yl)-10-chloro-12H-thiochromeno[2,3-c]q uinolin-12-one] | 95.42 | 100.96 | 87.84 | 90.91 | 70.17 | 89.94 | 95.57 | 96.69 | 105.64 | 99.32 | 98.59 | 94.51 | 102.71 | 100.42 | 82.62 | 96.69 | 94.22 | 96.99 | 104.19 | 95.39 | Growth percent (UACC-62): 96.00%; Growth percent (OVCAR-3): 101.69%; Growth percent (OVCAR-4): 102.43%; Growth percent (NCI/ADR-RES): 98.31%; Growth percent (SK-OV-3): 94.79%; Growth percent (786-0): 105.57%; Growth percent (A498): 94.17%; Growth percent (CAKI-1): 94.03%; Growth percent (RXF 393): 100.71%; Growth percent (TK-10): 124.99%; Growth percent (UO-31): 64.91%; Growth percent (PC-3): 89.12%; Growth percent (MCF7): 68.32%; Growth percent (MDA-MB-231/ATCC): 89.11%; Growth percent (HS 578T): 76.42%; Growth percent (T-47D): 89.22%; Growth percent (MDA-MB-486): 98.53%
2 | O=c1c2ccc(Cl)cc2sc2c(Cl)nc3ccccc3c12 [Compound 3, 6,9-Dichloro-12H-thiochromeno[2,3-c]quinolin-12-one] | 93.12 | 99.34 | 101.04 | 98.04 | 90.83 | 85.12 | 103.14 | 96.81 | 112.15 | 123.28 | 102.27 | 102.28 | 99.73 | 109.60 | 77.88 | 101.71 | 90.53 | 100.64 | 101.80 | 104.47 | Growth percent (UACC-62): 89.69%; Growth percent (OVCAR-3): 111.27%; Growth percent (OVCAR-4): 87.91%; Growth percent (NCI/ADR-RES): 102.80%; Growth percent (SK-OV-3): 101.32%; Growth percent (786-0): 105.25%; Growth percent (A498): 106.06%; Growth percent (CAKI-1): 94.31%; Growth percent (RXF 393): 102.55%; Growth percent (TK-10): 108.56%; Growth percent (UO-31): 66.06%; Growth percent (PC-3): 91.59%; Growth percent (MCF7): 82.58%; Growth percent (MDA-MB-231/ATCC): 84.28%; Growth percent (HS 578T): 95.14%; Growth percent (T-47D): 110.10%; Growth percent (MDA-MB-486): 98.57%
3 | O=c1c2cc(Cl)ccc2sc2c(N3CCN(c4ccccc4)CC3)nc3ccccc3c12 [Compound 12, 10-Chloro-6-(4-phenylpiperazin-1-yl)-12H-thiochromeno[2,3-c] quinolin-12-one] | 98.41 | 113.79 | 112.37 | 107.23 | 81.27 | 93.80 | 103.24 | 93.50 | 111.67 | 105.23 | 105.36 | 99.81 | 99.94 | 103.82 | 94.73 | 96.09 | 95.15 | 102.39 | 104.22 | 93.68 | Growth percent (UACC-62): 104.48%; Growth percent (OVCAR-3): 109.63%; Growth percent (OVCAR-4): 94.29%; Growth percent (NCI/ADR-RES): 100.81%; Growth percent (SK-OV-3): 100.39%; Growth percent (786-0): 101.58%; Growth percent (A498): 81.04%; Growth percent (CAKI-1): 97.83%; Growth percent (RXF 393): 107.68%; Growth percent (TK-10): 112.45%; Growth percent (UO-31): 63.85%; Growth percent (PC-3): 90.66%; Growth percent (MCF7): 74.16%; Growth percent (MDA-MB-231/ATCC): 94.34%; Growth percent (HS 578T): 85.20%; Growth percent (T-47D): 104.57%; Growth percent (MDA-MB-486): 86.34%
4 | O=c1c2cc(Cl)ccc2sc2c(N3CCN(CCO)CC3)nc3ccccc3c12 [Compound 10, 10-Chloro-6-(4-(2-hydroxyethyl)piperazin-1-yl)-12H-thiochrom eno[2,3-c]quinolin-12one] | 83.46 | 93.81 | 35.47 | 70.01 | 39.64 | 84.75 | 93.71 | 94.76 | 88.90 | 103.49 | 69.33 | 82.92 | 63.19 | 87.80 | 77.64 | 83.31 | 87.79 | 98.24 | 100.66 | 102.79 | Growth percent (UACC-62): 91.36%; Growth percent (OVCAR-3): 93.92%; Growth percent (OVCAR-4): 85.35%; Growth percent (NCI/ADR-RES): 92.05%; Growth percent (SK-OV-3): 95.12%; Growth percent (786-0): 85.58%; Growth percent (A498): 62.20%; Growth percent (CAKI-1): 87.87%; Growth percent (RXF 393): 70.31%; Growth percent (TK-10): 93.19%; Growth percent (UO-31): 42.34%; Growth percent (PC-3): 77.99%; Growth percent (MCF7): 51.73%; Growth percent (MDA-MB-231/ATCC): 55.49%; Growth percent (HS 578T): 76.01%; Growth percent (T-47D): 87.22%; Growth percent (MDA-MB-486): 81.67%
